Measured values reported in article PMC2770896, “Inhibition of Neuraminidase Inhibitor-Resistant Influenza Virus by DAS181, a Novel Sialidase Fusion Protein” (PLoS ONE, 2009).
Read-outs that look alike come from different tables or passages of the source.

What was measured:
[1] = system: A/Victoria/3/75 (H3N2) with A28T(HA) and R292K(NA) mutations; conditions: cited from earlier work
[2] = biological target: NA enzymatic activity of A/New Jersey/15/2007 (Influenza A virus (H1N1), UniProt D5F1R0, H275Y); type: biochemical, IFV A (H1N1); conditions: for R/S: A/New Jersey/15/2007, NI assay
[3] = biological target: NA enzymatic activity of A/St.Louis/758/09 (Influenza A virus, UniProt D0FH51, S5N); experiment: biochemical; type: biochemical, IFV A (H1N1); conditions: for R/S: NI assay
[4] = biological target: NA enzymatic activity of A/Georgia/20/2006 H274Y (Influenza A virus (H1N1), UniProt B1AGS8); experiment: biochemical; type: biochemical

SMILES	Resistance [1]	R/S [2]	IC50 [3]	R/S ([3]; A/St.Louis/758/09)	IC50 [4]	R/S [4]	IC50 ([2]; A/New Jersey/15/2007 reference virus, mean of triplicate analysis)	IC50 ([3]; A/St.Louis/758/09, mean of triplicate analysis, read-out: IC50)	IC50 ([4]; read-out: IC50)
CC(=O)N[C@H]1[C@H]([C@H](O)[C@H](O)CO)OC(C(=O)O)=C[C@@H]1N=C(N)N [zanamivir]	60 fold	S	0.34 nM	S	0.57 nM	S	–	–	–
CCC(CC)O[C@@H]1C=C(C(=O)O)C[C@H](N)[C@H]1NC(C)=O [oseltamivir, oseltamivir carboxylate]	3230 fold	R	–	R	–	R	124 nM	88.4 nM	192 nM
